Test results published in patent publication US6878725B2, “Serine protease inhibitors” (Eli Lilly and Company, priority 2001, dated 2005).

| Compound | melting point |
| --- | --- |
| Cl.O=C(N[C@@H](C(=O)N1CCC(Nc2ccncc2)CC1)c1ccccc1)c1ccc2cc[nH]c2c1 | 205 to 215 °C |
| O=C(N[C@@H](C(=O)N1CCC(Nc2ccccn2)CC1)c1ccccc1)c1ccc2cc[nH]c2c1 [Example 39, 1-(Indole-6-carbonyl-D-phenylglycinyl)-4-(pyridin-2-ylamino)piperidine] | 128 to 134 °C |
